Converted amounts (≈) assume the structure as drawn.
How the values were obtained:
Format in all cases: functional
Aspergillus niger [1] = assay: Antifungal activity against Aspergillus niger MTCC 2546 at 100 ug/ml after 48 hr by cup-plate method; details: MTCC 2546, 48 h, read-out: DIZ
Micrococcus luteus [2] = assay: Antibacterial activity against Micrococcus luteus MTCC 1538 at 250 ug/ml after 48 hr by cup-plate method; details: MTCC 1538, 48 h, read-out: DIZ
Bacillus pumilus [3] = assay: Antibacterial activity against Bacillus pumilus MTCC 1456 at 1250 ug/ml after 48 hr by cup-plate method; details: MTCC 1456, 48 h, read-out: DIZ
Pseudomonas aeruginosa [4] = assay: Antibacterial activity against Pseudomonas aeruginosa MTCC 424 at 750 ug/ml after 48 hr by cup-plate method; details: MTCC 424, 48 h, read-out: DIZ
Penicillium chrysogenum [5] = assay: Antifungal activity against Penicillium chrysogenum MTCC 161 at 100 ug/ml after 48 hr by cup-plate method; details: MTCC 161, 48 h, read-out: DIZ
Aspergillus niger [6] = assay: Antifungal activity against Aspergillus niger MTCC 2546 at 250 ug/ml after 48 hr by cup-plate method; details: MTCC 2546, 48 h, read-out: DIZ
Penicillium chrysogenum [7] = assay: Antifungal activity against Penicillium chrysogenum MTCC 161 at 500 ug/ml after 48 hr by cup-plate method; details: MTCC 161, 48 h, read-out: DIZ
Bacillus pumilus [8] = assay: Antibacterial activity against Bacillus pumilus MTCC 1456 at 100 ug/ml after 48 hr by cup-plate method; details: MTCC 1456, 48 h, read-out: DIZ
Escherichia coli [9] = assay: Antibacterial activity against Escherichia coli MTCC 1573 at 250 ug/ml after 48 hr by cup-plate method; details: MTCC 1573, 48 h, read-out: DIZ
Aspergillus niger [10] = assay: Antifungal activity against Aspergillus niger MTCC 2546 at 1000 ug/ml after 48 hr by cup-plate method; details: MTCC 2546, 48 h, read-out: DIZ
Pseudomonas fluorescens [11] = assay: Antibacterial activity against Pseudomonas fluorescens MTCC 2421 at 250 ug/ml after 48 hr by cup-plate method; details: MTCC 2421, 48 h, read-out: DIZ
Pseudomonas aeruginosa [12] = assay: Antibacterial activity against Pseudomonas aeruginosa MTCC 424 at 250 ug/ml after 48 hr by cup-plate method; details: MTCC 424, 48 h, read-out: DIZ
Pseudomonas fluorescens [13] = assay: Antibacterial activity against Pseudomonas fluorescens MTCC 2421 at 1000 ug/ml after 48 hr by cup-plate method; details: MTCC 2421, 48 h, read-out: DIZ
Micrococcus luteus [14] = assay: Antibacterial activity against Micrococcus luteus MTCC 1538 at 500 ug/ml after 48 hr by cup-plate method; details: MTCC 1538, 48 h, read-out: DIZ
Pseudomonas aeruginosa [15] = assay: Antibacterial activity against Pseudomonas aeruginosa MTCC 424 at 100 ug/ml after 48 hr by cup-plate method; details: MTCC 424, 48 h, read-out: DIZ
Bacillus pumilus [16] = assay: Antibacterial activity against Bacillus pumilus MTCC 1456 after 24 to 48 hr by tube dilution method
Penicillium chrysogenum [17] = assay: Antifungal activity against Penicillium chrysogenum MTCC 161 at 1250 ug/ml after 48 hr by cup-plate method; details: MTCC 161, 48 h, read-out: DIZ
Pseudomonas aeruginosa [18] = assay: Antibacterial activity against Pseudomonas aeruginosa MTCC 424 at 1000 ug/ml after 48 hr by cup-plate method; details: MTCC 424, 48 h, read-out: DIZ
Bacillus subtilis [19] = assay: Antibacterial activity against Bacillus subtilis MTCC 441 at 750 ug/ml after 48 hr by cup-plate method; details: MTCC 441, 48 h, read-out: DIZ
Escherichia coli [20] = assay: Antibacterial activity against Escherichia coli MTCC 1573 at 1250 ug/ml after 48 hr by cup-plate method; details: MTCC 1573, 48 h, read-out: DIZ
Micrococcus luteus [21] = assay: Antibacterial activity against Micrococcus luteus MTCC 1538 at 1000 ug/ml after 48 hr by cup-plate method; details: MTCC 1538, 48 h, read-out: DIZ
Pseudomonas aeruginosa [22] = assay: Antibacterial activity against Pseudomonas aeruginosa MTCC 424 after 24 to 48 hr by tube dilution method
Bacillus pumilus [23] = assay: Antibacterial activity against Bacillus pumilus MTCC 1456 at 1000 ug/ml after 48 hr by cup-plate method; details: MTCC 1456, 48 h, read-out: DIZ
Pseudomonas fluorescens [24] = assay: Antibacterial activity against Pseudomonas fluorescens MTCC 2421 at 500 ug/ml after 48 hr by cup-plate method; details: MTCC 2421, 48 h, read-out: DIZ
Penicillium chrysogenum [25] = assay: Antifungal activity against Penicillium chrysogenum MTCC 161 at 1000 ug/ml after 48 hr by cup-plate method; details: MTCC 161, 48 h, read-out: DIZ
Aspergillus niger [26] = assay: Antifungal activity against Aspergillus niger MTCC 2546 at 500 ug/ml after 48 hr by cup-plate method; details: MTCC 2546, 48 h, read-out: DIZ
Micrococcus luteus [27] = assay: Antibacterial activity against Micrococcus luteus MTCC 1538 after 24 to 48 hr by tube dilution method
Penicillium chrysogenum [28] = assay: Antifungal activity against Penicillium chrysogenum MTCC 161 at 250 ug/ml after 48 hr by cup-plate method; details: MTCC 161, 48 h, read-out: DIZ
Penicillium chrysogenum [29] = assay: Antifungal activity against Penicillium chrysogenum MTCC 161 after 24 to 48 hr by tube dilution method
Staphylococcus aureus [30] = assay: Antibacterial activity against Staphylococcus aureus MTCC 1430 at 500 ug/ml after 48 hr by cup-plate method; details: MTCC 1430, 48 h, read-out: DIZ
Staphylococcus aureus [31] = assay: Antibacterial activity against Staphylococcus aureus MTCC 1430 at 750 ug/ml after 48 hr by cup-plate method; details: MTCC 1430, 48 h, read-out: DIZ
Staphylococcus aureus [32] = assay: Antibacterial activity against Staphylococcus aureus MTCC 1430 after 24 to 48 hr by tube dilution method
Escherichia coli [33] = assay: Antibacterial activity against Escherichia coli MTCC 1573 at 500 ug/ml after 48 hr by cup-plate method; details: MTCC 1573, 48 h, read-out: DIZ
Penicillium chrysogenum [34] = assay: Antifungal activity against Penicillium chrysogenum MTCC 161 at 750 ug/ml after 48 hr by cup-plate method; details: MTCC 161, 48 h, read-out: DIZ
Micrococcus luteus [35] = assay: Antibacterial activity against Micrococcus luteus MTCC 1538 at 750 ug/ml after 48 hr by cup-plate method; details: MTCC 1538, 48 h, read-out: DIZ
Micrococcus luteus [36] = assay: Antibacterial activity against Micrococcus luteus MTCC 1538 at 1250 ug/ml after 48 hr by cup-plate method; details: MTCC 1538, 48 h, read-out: DIZ
Aspergillus niger [37] = assay: Antifungal activity against Aspergillus niger MTCC 2546 after 24 to 48 hr by tube dilution method
Pseudomonas fluorescens [38] = assay: Antibacterial activity against Pseudomonas fluorescens MTCC 2421 at 1250 ug/ml after 48 hr by cup-plate method; details: MTCC 2421, 48 h, read-out: DIZ
Bacillus subtilis [39] = assay: Antibacterial activity against Bacillus subtilis MTCC 441 at 500 ug/ml after 48 hr by cup-plate method; details: MTCC 441, 48 h, read-out: DIZ
Pseudomonas fluorescens [40] = assay: Antibacterial activity against Pseudomonas fluorescens MTCC 2421 after 24 to 48 hr by tube dilution method
Bacillus pumilus [41] = assay: Antibacterial activity against Bacillus pumilus MTCC 1456 at 250 ug/ml after 48 hr by cup-plate method; details: MTCC 1456, 48 h, read-out: DIZ
Bacillus subtilis [42] = assay: Antibacterial activity against Bacillus subtilis MTCC 441 at 1000 ug/ml after 48 hr by cup-plate method; details: MTCC 441, 48 h, read-out: DIZ
Staphylococcus aureus [43] = assay: Antibacterial activity against Staphylococcus aureus MTCC 1430 at 250 ug/ml after 48 hr by cup-plate method; details: MTCC 1430, 48 h, read-out: DIZ
Pseudomonas aeruginosa [44] = assay: Antibacterial activity against Pseudomonas aeruginosa MTCC 424 at 500 ug/ml after 48 hr by cup-plate method; details: MTCC 424, 48 h, read-out: DIZ
Escherichia coli [45] = assay: Antibacterial activity against Escherichia coli MTCC 1573 after 24 to 48 hr by tube dilution method

Q: Which results are given for `O=[N+]([O-])c1ccc(C2CC(c3cccc4ccccc34)=NN2)cc1` (stereo not given)?
A: zone of inhibition at 100 µg/mL (Aspergillus niger [1]): 8 mm; zone of inhibition at 250 µg/mL (Micrococcus luteus [2]): 10 mm; zone of inhibition at 1250 µg/mL (Bacillus pumilus [3]): 22 mm; zone of inhibition at 750 µg/mL (Pseudomonas aeruginosa [4]): 12 mm; zone of inhibition at 100 µg/mL (Penicillium chrysogenum [5]): 8 mm; zone of inhibition at 250 µg/mL (Aspergillus niger [6]): 9 mm; zone of inhibition at 500 µg/mL (Penicillium chrysogenum [7]): 10 mm; zone of inhibition at 100 µg/mL (Bacillus pumilus [8]): 8 mm; zone of inhibition at 250 µg/mL (Escherichia coli [9]): 10 mm; zone of inhibition at 1000 µg/mL (Aspergillus niger [10]): 16 mm; zone of inhibition at 250 µg/mL (Pseudomonas fluorescens [11]): 9 mm; zone of inhibition at 250 µg/mL (Pseudomonas aeruginosa [12]): 10 mm; zone of inhibition at 1000 µg/mL (Pseudomonas fluorescens [13]): 15 mm; zone of inhibition at 500 µg/mL (Micrococcus luteus [14]): 11 mm; zone of inhibition at 100 µg/mL (Pseudomonas aeruginosa [15]): 9 mm; MIC (Bacillus pumilus [16]): 30 µg/mL (≈ 94.5 µM); zone of inhibition at 1250 µg/mL (Penicillium chrysogenum [17]): 17 mm; zone of inhibition at 1000 µg/mL (Pseudomonas aeruginosa [18]): 13 mm; zone of inhibition at 750 µg/mL (Bacillus subtilis [19]): 15 mm; zone of inhibition at 1250 µg/mL (Escherichia coli [20]): 18 mm; zone of inhibition at 1000 µg/mL (Micrococcus luteus [21]): 13 mm; MIC (Pseudomonas aeruginosa [22]): 30 µg/mL (≈ 94.5 µM); zone of inhibition at 1000 µg/mL (Bacillus pumilus [23]): 17 mm; zone of inhibition at 500 µg/mL (Pseudomonas fluorescens [24]): 11 mm; zone of inhibition at 1000 µg/mL (Penicillium chrysogenum [25]): 15 mm; zone of inhibition at 500 µg/mL (Aspergillus niger [26]): 10 mm; MIC (Micrococcus luteus [27]): 30 µg/mL (≈ 94.5 µM); zone of inhibition at 250 µg/mL (Penicillium chrysogenum [28]): 9 mm; MIC (Penicillium chrysogenum [29]): 50 µg/mL (≈ 158 µM); zone of inhibition at 500 µg/mL (Staphylococcus aureus [30]): 11 mm; zone of inhibition at 750 µg/mL (Staphylococcus aureus [31]): 13 mm; MIC (Staphylococcus aureus [32]): 50 µg/mL (≈ 158 µM); zone of inhibition at 500 µg/mL (Escherichia coli [33]): 11 mm; zone of inhibition at 750 µg/mL (Penicillium chrysogenum [34]): 14 mm; zone of inhibition at 750 µg/mL (Micrococcus luteus [35]): 12 mm; zone of inhibition at 1250 µg/mL (Micrococcus luteus [36]): 15 mm; MIC (Aspergillus niger [37]): 50 µg/mL (≈ 158 µM); zone of inhibition at 1250 µg/mL (Pseudomonas fluorescens [38]): 17 mm; zone of inhibition at 500 µg/mL (Bacillus subtilis [39]): 13 mm; MIC (Pseudomonas fluorescens [40]): 150 µg/mL (≈ 473 µM); zone of inhibition at 250 µg/mL (Bacillus pumilus [41]): 9 mm; zone of inhibition at 1000 µg/mL (Bacillus subtilis [42]): 16 mm; zone of inhibition at 250 µg/mL (Staphylococcus aureus [43]): 10 mm; zone of inhibition at 500 µg/mL (Pseudomonas aeruginosa [44]): 11 mm; MIC (Escherichia coli [45]): 200 µg/mL (≈ 630 µM)
